Measurements published in US20240327454A1, “DETERGENT AND METHOD FOR PURIFYING A BIOTHERAPEUTIC” (MEDIMMUNE, LLC, priority 2020, published 2024).

Experiments:
AAV6.2 = test: AAV purification on Capto AVB after cell lysis, eluate titer and infectivity; settings: for CaptoAVB Elu Infectivity / CaptoAVB Elu Titer: detergent cell lysis, cell paste lot A8489 (Brij-L9), A8102 (Triton X100)
Procedure: (§1) An AAV6.2 cell paste slurry was generated and stored at −80° C. Brij L9 (Laureth-9) was sourced from Croda International Plc. (East Yorkshire, United Kingdom). Triton X-100 was sourced from Spectrum Chemical (New Brunswick, NJ). Capto AVB resin was sourced from GE Healthcare (Piscataway, NJ). COSP filters were obtained from EMD Millipore (Burlington, MA). Sartopore 2 XLG, 0.8/0.2 um filters were obtained from Sartorius Stedim Biotech GmbH (Gottingen, Germany). All the buffer salts were sourced from Avantor Performance Chemicals (Center Valley, Pennsylvania).
(§2) For detergent lysis, the AAV6.2 cell paste was diluted to a 10% slurry with 20 mM Tris, 200 mM NaCl, 2 mM MgCl2, pH 7.5. 10% (w/w) detergent stock solution was spiked into cell slurry to bring final detergent concentration to 0.5% (v/w). Benzonase was spiked to 10 U/ml into cell slurry mixture and mixed slowly at RT for 1 hour.
For freeze-and-thaw lysis, the cell paste slurry was put through 2 freeze-thaw cycles at −80° C. and RT. AAV lysate was diluted to 10% slurry with 20 mM Tris, 200 mM NaCl, 2 mM MgCl2, pH 7.5. Benzonase was spiked to 10 U/ml into cell slurry mixture and mixed slowly at RT for 1 hour.
(§3) AAV Purification was performed using a Capto AVB affinity column. Purification was controlled by Unicorn 7.0 software on an AKTA AVANT purchased from GE Healthcare (Piscataway, NJ). COSP POD filter was flushed with 20 mM Tris, 500 mM NaCl, 2 mM MgCl2, pH 7.5. 10% AAV6.2 cell lysate was clarified with COSP followed by Sartopore 2 XLG, 0.8/0.2 um filter. Capto AVB column was equilibrated with 20 mM Tris, 200 mM NaCl, 2 mM MgCl2, pH 7.5 for 3 column volumes (CV). Clarified cell lysate was loaded with residence time of 6 min. Column was re-equilibrated with 20 mM Tris, 200 mM NaCl, 2 mM MgCl2, pH 7.5 for 4 CV. Product was eluted from column with 50 mM citric acid, 500 mM NaCl, 2 mM MgCl2, pH 2.5. Eluate pH was adjusted to pH 8.0 with 1 M Tris/HCl, pH 8.0 AAV Titer was determined by centrifuging 10% lysate at 13,000 rpm for 10 min and collecting the supernatant. AAV titer was determined with in-house qPCR method.

aquatic organisms = settings: cited from earlier work
enveloped virus = settings: cited from earlier work
AAV6.2 cell paste = test: Detergent lysis of AAV6.2 cell paste slurry, lysate AAV titer by qPCR; type: cell-based; settings: for Lysate AAV6 Titer: 0.5% detergent, AAV6 cell paste lot A8498, 1 hour at RT
Procedure: as §1, §2, §3

XMuLV [1] = test: Viral inactivation by Laureth-9 in XMuLV-spiked BisAb or BisFusion conditioned media (Example 2); type: cell-based, murine xenotropic leukemia virus-related virus
Procedure: (§4) Harvest media was spiked with murine xenotropic leukemia virus-related virus (XMuLV) stock prior to the detergent spike.
(§5) Conditioned cell harvest media containing a monovalent bispecific human IgG1 monoclonal antibody (BisAb) was spiked with 8.5 logs of XMuLV. A sample of the virus spiked harvest media was collected and used as a hold control to determine the rate of viral inactivation without detergent.
(§6) A 10% (w/w) stock solution was made by dissolving detergent into 50 mM Tris pH 7.4. A cell harvest sample of BisAb media spiked with XMuLV was spiked to a 1% detergent concentration using an appropriate amount of the 10% stock solution. The hold control and reaction samples were incubated at room temperature. Samples were collected at 1, 10, 60, and 120 minutes and diluted 1:50 in McCoy medium to stop the viral inactivation reaction. Diluted samples and hold control were assayed for viral concentration using a plaque assay.
A study was performed essentially as described in Example 1 to examine the viral inactivation using detergent concentrations of 1% Brij L9 (Laureth-9, sourced from Croda International Plc., East Yorkshire, United Kingdom) and 1% Polidodecanol 600 (Laureth-9, sourced from Schärer & Schläpfer AG, Rothrist, Switzerland) for CHO-derived conditioned media for BisAb and 1% or 0.1% Brij L9 for CHO-derived conditioned media for a bispecific fusion protein (BisFusion).

XMuLV [2] = test: Viral inactivation by 1% detergent in XMuLV-spiked BisAb cell harvest media, plaque assay (Example 1); type: cell-based, murine xenotropic leukemia virus-related virus; set-up: Virus concentration: unit not given here; settings: for Log10 reduction value / Virus concentration: BisAb harvest media; for Virus concentration: room temperature; for viral inactivation kinetics: in words, compared to Laureth-9
Source text: The viral inactivation of four detergents was examined using a CHO-derived cell harvest material for a monovalent bispecific human IgG1 monoclonal antibody. Brij L9 (Laureth-9), Myrj S25, and Brij S20 were sourced from Croda International Plc. (East Yorkshire, United Kingdom). Polidocanol 600 (Laureth-9) was sourced from Schärer & Schläpfer AG (Rothrist, Switzerland).
as §4, §5, §6

[3] = 0 min, 0.1% detergent, BisFusion
[4] = 10 min, 0.1% detergent, BisFusion
[5] = 10 min, 1% detergent, BisFusion
[6] = 60 min, 0.1% detergent, BisFusion
[7] = 60 min, 1% detergent, BisFusion
[8] = <1 min, 0.1% detergent, BisFusion
[9] = <1 min, 1% detergent, BisFusion

Row | Molecule | CaptoAVB Elu Infectivity (AAV6.2) [Log10 TCID50/mL] | CaptoAVB Elu Titer (AAV6.2) [Log10 vg/mL] | endocrine disruption (aquatic organisms) | Lysate AAV6 Titer (AAV6.2 cell paste) [Log10 vg/mL] | Log10 reduction value (XMuLV [1]; 0 min, 1% detergent, BisAb) [Log10] | Virus concentration (XMuLV [1]; 0 min, 1% detergent, BisAb) | Log10 reduction value (XMuLV [1]; 10 min, 1% detergent, BisAb) [Log10] | Virus concentration (XMuLV [1]; 10 min, 1% detergent, BisAb) | Log10 reduction value (XMuLV [1]; 60 min, 1% detergent, BisAb) [Log10] | Virus concentration (XMuLV [1]; 60 min, 1% detergent, BisAb) | Log10 reduction value (XMuLV [1]; <1 min, 1% detergent, BisAb) [Log10] | Virus concentration (XMuLV [1]; <1 min, 1% detergent, BisAb) | Log10 reduction value (XMuLV [2]; 0 min) [Log10] | Virus concentration (XMuLV [2]; 0 min) | Log10 reduction value (XMuLV [2]; 10 min) [Log10] | Virus concentration (XMuLV [2]; 10 min) | Log10 reduction value (XMuLV [2]; 60 min) [Log10] | Virus concentration (XMuLV [2]; 60 min) | Log10 reduction value (XMuLV [2]; 120 min) [Log10] | Virus concentration (XMuLV [2]; 120 min) | further results
1 | Triton X-100 [reference compound] | 9.8 | 11.8 | can behave as endocrine disrupters in aquatic organisms | 11.03 | – | – | – | – | – | – | – | – | – | – | – | – | – | – | – | – | enveloped virus inactivation (enveloped virus; diverse set of experimental conditions): greater than 4 logs
2 | CC(C)(C)CC(C)(C)c1ccc(O)cc1 [octlyphenol] | – | – | can behave as endocrine disrupters in aquatic organisms | – | – | – | – | – | – | – | – | – | – | – | – | – | – | – | – | – | –
3 | CCCCCCCCCCCCOCCOCCOCCOCCOCCOCCOCCOCCOCCO [Brij L9, 3,6,9,12,15,18,21,24,27-nonaoxanonatriacontan-1-ol] | 10.5 | 12.2 | – | 11.04 | 0 | 7.00 | >4.07 | <2.88 | >4.07 | <2.88 | >4.03 | <2.88 | 0 | 7.79 | >4.61 | <3.18 | >4.61 | <3.18 | >4.61 | <3.18 | impact on AAV infectivity (AAV6.2; in words): does not show any negative impact; Log10 reduction value (XMuLV [1]; [3]): 0 Log10; Virus concentration (XMuLV [1]; [3]): 7.21; Log10 reduction value (XMuLV [1]; 0 min, 1% detergent, BisFusion): 0 Log10; Virus concentration (XMuLV [1]; 0 min, 1% detergent, BisFusion): 7.21; Log10 reduction value (XMuLV [1]; [4]): >3.88 Log10; Virus concentration (XMuLV [1]; [4]): <2.88; Log10 reduction value (XMuLV [1]; [5]): >3.84 Log10; Virus concentration (XMuLV [1]; [5]): <2.88; Log10 reduction value (XMuLV [1]; [6]): >3.88 Log10; Virus concentration (XMuLV [1]; [6]): <2.88; Log10 reduction value (XMuLV [1]; [7]): >3.84 Log10; Virus concentration (XMuLV [1]; [7]): <2.88; Log10 reduction value (XMuLV [1]; [8]): >3.88 Log10; Virus concentration (XMuLV [1]; [8]): <2.88; Log10 reduction value (XMuLV [1]; [9]): >3.84 Log10; Virus concentration (XMuLV [1]; [9]): <2.88; viral inactivation kinetics (XMuLV [2]): improved, desirable viral inactivation kinetics; cell lysis for AAV purification (AAV6.2 cell paste; in words, compared with Triton X-100): as effective for cell lysis for AAV purification as Triton X-100
4 | polyoxyethylene (20) stearyl ether [Brij S20, reference compound] | – | – | – | – | – | – | – | – | – | – | – | – | 0 | 7.79 | 2.90 | 4.89 | >4.61 | <3.18 | >4.61 | <3.18 | Log10 reduction value (XMuLV [2]; <1 min): 0.89 Log10; Virus concentration (XMuLV [2]; <1 min): 6.9; viral inactivation kinetics (XMuLV [2]): significantly slower
5 | polyoxyethylene (23) lauryl ether [Brij 35] | – | – | – | – | – | – | – | – | – | – | – | – | – | – | – | – | – | – | – | – | effectiveness for viral inactivation (enveloped virus; finding of Conley et al. (2017)): not effective for viral inactivation
6 | CCCCCCCCCCCCOCCOCCOCCOCCOCCOCCOCCOCCOCCO [Polidodecanol 600, 3,6,9,12,15,18,21,24,27-nonaoxanonatriacontan-1-ol] | – | – | – | – | 0 | 7.00 | >4.07 | <2.88 | >4.07 | <2.88 | >4.03 | <2.88 | 0 | 7.79 | >4.61 | <3.18 | >4.61 | <3.18 | >4.61 | <3.18 | Log10 reduction value (XMuLV [2]; <1 min): >4.61 Log10
